Columns and labels:
[1] = Photo-physical properties in aqueous HEPES buffer solution; format: physicochemical; conditions: aqueous HEPES buffer 20 mM, pH 7.4
Procedure: Photo-physical properties of I-1-I-5 was measured in aqueous HEPES [4-(2-hydroxyethyl)piperazine-1-ethanesulfonic acid] buffer solution (20 mM, pH 7.4); NAO bromide was used as reference compound. Similar to NAO, derivatives I-1-I-5 have absorption maxima at 494-498 nm, and emission maxima at 528-529 nm (Table 1). […] Moreover, the trimethylsilylpropyl substituent in position 10 improved PLQY up to 60.7% (I-5). […] The introduction of longer alkyl chains such as nonyl and dodecyl led to PLQY decrease.

[2] = Fluorescence intensity on interaction with CL/DOPC liposomes; format: binding; conditions: for fluorescence intensity after interaction with CL/DOPC liposomes: CL/DOPC liposomes (3:1), end value of the drop; for fluorescence intensity before interaction with CL/DOPC liposomes: start value of the drop
Procedure: (§1) Liposomes preparation. Vesicles were prepared by classic thin film method. […] Obtained large multilamellar liposomes were sonicated in a bath-type sonicator at room temperature for 30 min following by extrusion through a 100 nm polycarbonate filter for 21 times. The quality of the resulting small unilamellar vesicles was monitored by dynamic light scattering (DLS) technique. These stock solutions were diluted 5-fold to acquire 2nd stock solutions that were used in the fluorometric experiments.

[3] = Titration with cardiolipin, linear regression curve; format: binding
Procedure: as §1

[4] = Stability of fluorescence during experiments; format: physicochemical; conditions: in 30 minutes
Text: (§2) Besides, NAO fluorescence intensity loss during interaction of DOPC was detected at 5.6% level.

[5] = Fluorescence intensity in the presence of DOPC liposomes without cardiolipin (selectivity); format: binding
Procedure: as §2, §1

[6] = decrease of green fluorescence in the presence of CL; cited from earlier work

## C[n+]1c2cc(N3CCC3)ccc2cc2ccc(N3CCC3)cc21.[I-] [Compound I-1, 3,6-di(azetidin-1-yl)-10-methylacridin-10-ium iodide]
[1]
  Φ (PLQY, photoluminescence quantum yield): 59.9%
  λabs: 497 nm
  λem: 529 nm

## CCCCCCCCCCCC[n+]1c2cc(N3CCC3)ccc2cc2ccc(N3CCC3)cc21.[I-] [Compound I-4, 3,6-di(azetidin-1-yl)-10-dodecylacridin-10-ium iodide]
[1]
  Φ (PLQY, photoluminescence quantum yield): 16.1%
  λabs: 494 nm
  λem: 528 nm

## [2H]C([2H])([2H])[n+]1c2cc(N3CCC3)ccc2cc2ccc(N3CCC3)cc21.[I-] [Compound I-2, 3,6-di(azetidin-1-yl)-10-(methyl-d3)acridin-10-ium iodide]
[1]
  Φ (PLQY, photoluminescence quantum yield): 61.5%
  λabs: 497 nm
  λem: 529 nm

## C[Si](C)(C)CCC[n+]1c2cc(N3CCC3)ccc2cc2ccc(N3CCC3)cc21.[I-] [Compound I-5, 3,6-di(azetidin-1-yl)-10-(3-(trimethylsilyl)propyl)acridin-10-ium iodide]
[2]
  fluorescence intensity after interaction with CL/DOPC liposomes: 6600 a.u.
  fluorescence intensity before interaction with CL/DOPC liposomes: 65800 a.u.
[3]
  linear slope of the titration curve: −6259±250
[4]
  fluorescence intensity drop during experiments: remaining the same
[5]
  fluorescence intensity drop in the presence of DOPC liposomes: 7.7%
[1]
  Φ (PLQY, photoluminescence quantum yield): 60.7%
  λabs: 497 nm
  λem: 529 nm

## CCCCCCCCC[n+]1c2cc(N3CCC3)ccc2cc2ccc(N3CCC3)cc21.[I-] [Compound I-3, 3,6-di(azetidin-1-yl)-10-nonylacridin-10-ium iodide]
[1]
  Φ (PLQY, photoluminescence quantum yield): 47.9%
  λabs: 498 nm
  λem: 529 nm

## CCCCCCCCC[n+]1c2cc(N(C)C)ccc2cc2ccc(N(C)C)cc21 [NAO, 10-N-nonyl acridine orange, reference compound]
[2]
  fluorescence intensity after interaction with CL/DOPC liposomes: 1260 a.u.
  fluorescence intensity before interaction with CL/DOPC liposomes: 13300 a.u.
[3]
  linear slope of the titration curve: −1222±49
[4]
  fluorescence intensity drop during experiments: 15.5%
[5]
  fluorescence intensity drop in the presence of DOPC liposomes: 5.6%
[6]
  CL content that can be quantitatively analyzed: 0.2 to 10 µM
[1]
  Φ (PLQY, photoluminescence quantum yield): 15.5%
  λabs: 498 nm
  λem: 528 nm

— patent US12630719B2, “Fluorescent acridinium salts, synthesis thereof and use for detection of cardiolipin” (LATVIAN INSTITUTE OF ORGANIC SYNTHESIS, priority 2019, dated 2026)
